Laboratory results from article PMC5916850 (Bioorganic & medicinal chemistry letters, 2018).

Target: GRK5 (Homo sapiens, UniProt P34947)
Assay: GRK phosphorylation assay, GRK5
Conditions: average of three separate experiments run in duplicate; error = standard error of the mean

Sequence of GRK5 (P34947 whole entry, species assumed): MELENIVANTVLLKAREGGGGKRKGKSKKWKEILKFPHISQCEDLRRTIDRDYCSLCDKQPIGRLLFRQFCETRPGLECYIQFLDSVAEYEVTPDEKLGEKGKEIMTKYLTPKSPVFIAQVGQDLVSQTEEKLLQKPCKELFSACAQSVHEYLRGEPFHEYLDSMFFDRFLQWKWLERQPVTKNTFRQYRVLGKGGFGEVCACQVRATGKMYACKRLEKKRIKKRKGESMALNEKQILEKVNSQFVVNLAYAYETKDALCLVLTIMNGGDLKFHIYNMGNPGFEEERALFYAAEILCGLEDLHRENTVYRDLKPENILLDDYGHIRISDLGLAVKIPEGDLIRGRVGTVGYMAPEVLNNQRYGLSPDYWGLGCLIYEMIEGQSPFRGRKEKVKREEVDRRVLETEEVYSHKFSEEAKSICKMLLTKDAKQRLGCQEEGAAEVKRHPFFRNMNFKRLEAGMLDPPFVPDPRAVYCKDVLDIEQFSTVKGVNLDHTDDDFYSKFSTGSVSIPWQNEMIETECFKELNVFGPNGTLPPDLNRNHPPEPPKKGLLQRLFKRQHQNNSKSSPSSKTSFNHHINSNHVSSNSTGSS

GRK5 (IC50 μM), no sub-μM IC50 values:
C#CCN(CC(C)C)C(=O)Cc1cc(C2NC(=O)NC(C)=C2C(=O)Nc2ccc3[nH]ncc3c2)ccc1F (stereo not shown) [Compound 38], CC1=C(C(=O)Nc2ccc3[nH]ncc3c2)C(c2ccc(F)c(C(=O)NC(C)CCCC(C)C)c2)NC(=O)N1 (stereo not shown) [Compound 47], CC1=C(C(=O)Nc2ccc3[nH]ncc3c2)C(c2ccc(F)c(CC(=O)N3CCCC(C(C)(C)C)CC3)c2)NC(=O)N1 (stereo not shown) [Compound 31], CC1=C(C(=O)Nc2ccc3[nH]ncc3c2)C(c2ccc(F)c(CCC(=O)N(CC(C)C)C(C)C)c2)NC(=O)N1 (stereo not shown) [Compound 41], CC1=C(C(=O)Nc2ccc3[nH]ncc3c2)C(c2ccc(F)c(C(=O)NC3CC4CCC3(C)C4(C)C)c2)NC(=O)N1 (stereo not shown) [Compound 32], CCC(C)CN(CCO)C(=O)Cc1cc(C2NC(=O)NC(C)=C2C(=O)Nc2ccc3[nH]ncc3c2)ccc1F (stereo not shown) [Compound 44], COCCCC1CCCCN1C(=O)c1cc(C2NC(=O)NC(C)=C2C(=O)Nc2ccc3[nH]ncc3c2)ccc1F (stereo not shown) [Compound 48]
